One assay deals with PARG in HeLa cell line (Homo sapiens (Human), UniProt Q86W56). As to the kind of experiment: PARG cell assay (nuclear PAR chains after MMS, immunofluorescence). The format is cell-based. The note with it: HeLa cells, MMS 50 μg/mL; read-out: PARG Cell IC50 Geomean. As to the method: This method is based on the detection of endogenous levels of poly (ADP) ribose chains present in the nucleus of HeLa cell line using indirect immunofluorescence. MMS stimulation increases PAR chains for up to 25 mins. After that point, PARG is active and breaks down the PAR chains, until by one hour after stimulation no PAR chains are detectable. Inhibition of PARG maintains PAR chains.
PARG in HeLa cell line, sequence (Q86W56 whole entry): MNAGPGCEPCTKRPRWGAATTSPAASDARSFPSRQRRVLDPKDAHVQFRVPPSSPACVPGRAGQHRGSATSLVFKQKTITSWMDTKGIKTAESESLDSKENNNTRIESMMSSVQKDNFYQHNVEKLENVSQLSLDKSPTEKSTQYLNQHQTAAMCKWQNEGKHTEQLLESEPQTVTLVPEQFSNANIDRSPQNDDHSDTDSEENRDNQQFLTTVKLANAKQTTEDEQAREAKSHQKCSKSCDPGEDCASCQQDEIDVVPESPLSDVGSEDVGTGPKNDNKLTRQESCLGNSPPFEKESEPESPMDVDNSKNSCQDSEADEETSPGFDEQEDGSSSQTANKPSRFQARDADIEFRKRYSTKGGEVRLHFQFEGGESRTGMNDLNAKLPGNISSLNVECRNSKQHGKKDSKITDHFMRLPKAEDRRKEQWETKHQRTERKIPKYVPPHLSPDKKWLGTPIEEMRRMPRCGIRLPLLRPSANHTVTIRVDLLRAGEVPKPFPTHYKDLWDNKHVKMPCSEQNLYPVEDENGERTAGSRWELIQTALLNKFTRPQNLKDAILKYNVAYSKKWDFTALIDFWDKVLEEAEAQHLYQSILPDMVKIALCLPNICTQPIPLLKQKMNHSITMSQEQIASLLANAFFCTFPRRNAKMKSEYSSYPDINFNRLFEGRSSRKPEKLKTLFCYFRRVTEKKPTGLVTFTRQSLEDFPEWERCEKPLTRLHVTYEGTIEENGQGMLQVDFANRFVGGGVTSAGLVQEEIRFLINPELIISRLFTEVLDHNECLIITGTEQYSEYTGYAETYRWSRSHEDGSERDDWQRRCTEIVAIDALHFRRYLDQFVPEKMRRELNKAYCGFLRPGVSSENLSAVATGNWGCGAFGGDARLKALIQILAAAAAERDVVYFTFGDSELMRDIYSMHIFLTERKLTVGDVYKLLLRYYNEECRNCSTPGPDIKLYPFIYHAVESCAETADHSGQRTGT
Briefly, following compound treatment and treatment with the DNA damaging agent methylmethanesulfonate (MMS), the cell monolayer is fixed, then permeabilised and incubated with a mouse monoclonal antibody raised against multimers of poly(ADP) ribose. After an overnight incubation, excess antibody is removed by washing and an Alexafluor 488-linked secondary antibody which recognises the mouse monoclonal is added together with a nuclear stain (Hoechst 33342). Images of the cells are then captured and analysed on a High Content Screening platform and the total intensity of the nuclear fluorescent signal at […] is quantified.
HeLa cells, seeded in 384-well plates, at 4000/well in 30 μL RPMI 1640 media, supplemented with 10% FBS and 2 mM Glutamax, were incubated overnight at 37° C., 5% CO2.
The following day, cells were dosed in quadruplicate with compound (10 point dose response) and incubated for 1 h at 37° C., 5% CO2.
At the end of the 1 h dosing period, MMS was added to duplicates at a final concentration of 50 μg/mL, for a further hour.
Media was tipped off and the cells fixed with 50 μL ice-cold 95% MetOH/PBS for 15 mins at −20° C. Following a PBS wash, 50 μL PBS/0.1% Triton was added to the cells for 20 mins. Following another PBS wash, anti-PAR antibody (Calbiochem AM80) was diluted 1:4000 in a buffer (PBS+0.5% FBS+0.05% Tween20) and added to the cells and incubated overnight at 4° C.
The following day, cells were washed three times with PBS and then incubated for 1 hr with secondary antibody (Alexa Fluor® 488 goat anti mouse IgG (H+L)) diluted 1:1000 and Hoechst diluted 1:5000 in buffer (5% FBS in PBS+0.05% Tween20).
Cells were washed three times with PBS and the plate sealed with a light-proof seal.
Images of the cells were captured on a ThermoFisher Celllnsight and the mean total intensity of spots fluorescent at 485 nm in the nucleus was reported.

Another assay concerns the target Human Full Length PARG (Homo sapiens (Human), UniProt Q86W56). The assay can be described thus: PARG in vitro enzyme assay (TR-FRET). Particulars: read-out: PARG_EC50_ENZYME. The format is biochemical. In a few lines: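 Full-length human PARG ([…]) incubated with ribosylated PARP substrate (4.5 nM) for 10 min at room temperature in Tris pH 7.4 buffer with EDTA, EGTA, DTT, KCl. Detection by TR-FRET using anti-6HIS XL665 (14 nM final) and streptavidin europium cryptate (0.75 nM final) after 60 min; Em665/Em620 ratio converted to percent inhibition.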
(In TR-FRET formats the signal depends on donor and acceptor labels being close together.)

Human Full Length PARG, sequence (Q86W56 whole entry): as above

With `COCCn1c(=O)n(-c2nnc(C)s2)c2cc(S(=O)(=O)NC3(C#N)CC3)ccc21` [Example 161, N-(1-Cyanocyclopropyl)-1-(2-methoxyethyl)-3-(5-methyl-1,3,4-thiadiazol-2-yl)-2-oxo-benzimidazole-5-sulfonamide], the IC50 at PARG in HeLa cell line came out at 491 nM. For the same compound, the EC50 on Human Full Length PARG stood at 616 nM.

In the case of `COCCn1c(=O)n(-c2nnc(C(F)F)s2)c2cc(S(=O)(=O)NC3(C#N)CC3)ccc21` [Example 162, N-(1-Cyanocyclopropyl)-3-[5-(difluoromethyl)-1,3,4-thiadiazol-2-yl]-1-(2-methoxyethyl)-2-oxo-benzimidazole-5-sulfonamide], the IC50 on PARG in HeLa cell line came to 176 nM. In addition, the EC50 on Human Full Length PARG is 260 nM.

Consider `COCCn1c(=O)n(-c2nnc(C(F)F)s2)c2cc(S(=O)(=O)NC3(CF)CC3)ccc21` [Example 163, 3-[5-(Difluoromethyl)-1,3,4-thiadiazol-2-yl]-N-[1-(fluoromethyl)cyclopropyl]-1-(2-methoxyethyl)-2-oxo-benzimidazole-5-sulfonamide], for which the IC50 at PARG in HeLa cell line worked out at 104 nM. On Human Full Length PARG, the EC50 turned out to be 90 nM.

Consider `Cc1cc(Cn2c(=O)n(-c3nnc(C(F)F)s3)c3cc(S(=O)(=O)NC4(CF)CC4)ccc32)n(C)n1` [Example 164, 3-[5-(Difluoromethyl)-1,3,4-thiadiazol-2-yl]-1-[(2,5-dimethylpyrazol-3-yl)methyl]-N-[1-(fluoromethyl)cyclopropyl]-2-oxo-benzimidazole-5-sulfonamide], for which the IC50 at PARG in HeLa cell line was determined as 109 nM. Also, the EC50 at Human Full Length PARG was determined as 203 nM.

For `Cc1cc(Cn2c(=O)n(-c3nnc(C(F)F)s3)c3cc(S(=O)(=O)NC4(C#N)CC4)ccc32)n(C)n1` [Example 165, N-(1-Cyanocyclopropyl)-3-[5-(difluoromethyl)-1,3,4-thiadiazol-2-yl]-1-[(2,5-dimethylpyrazol-3-yl)methyl]-2-oxo-benzimidazole-5-sulfonamide], the IC50 at PARG in HeLa cell line amounted to 127 nM. The EC50 on Human Full Length PARG is 234 nM.

Regarding `Cc1nnc(-n2c(=O)n(CC#N)c3ccc(S(=O)(=O)NC4(C)CC4)cc32)s1` [Example 166, 1-(Cyanomethyl)-N-(1-methylcyclopropyl)-3-(5-methyl-1,3,4-thiadiazol-2-yl)-2-oxo-benzimidazole-5-sulfonamide], the IC50 on PARG in HeLa cell line is 291 nM. Moreover, at Human Full Length PARG, the EC50 stood at 784 nM.

For `COCCn1c(=O)n(-c2nnc(C(F)F)s2)c2cc(S(=O)(=O)NC3(CF)CC3)c(F)cc21` [Example 167, 3-[5-(Difluoromethyl)-1,3,4-thiadiazol-2-yl]-6-fluoro-N-[1-(fluoromethyl)cyclopropyl]-1-(2-methoxyethyl)-2-oxo-benzimidazole-5-sulfonamide], the IC50 at PARG in HeLa cell line stood at 46 nM. Besides, the EC50 at Human Full Length PARG stood at 74 nM.

On to `COCCn1c(=O)n(-c2nnc(C(F)F)s2)c2cc(S(=O)(=O)NC3(C)CC3)c(F)cc21` [Example 168, 3-[5-(Difluoromethyl)-1,3,4-thiadiazol-2-yl]-6-fluoro-1-(2-methoxyethyl)-N-(1-methylcyclopropyl)-2-oxo-benzimidazole-5-sulfonamide], for which, at PARG in HeLa cell line, the IC50 amounted to 32 nM. At Human Full Length PARG, the EC50 is 99 nM.

In the case of `COCCn1c(=O)n(-c2nnc(C(F)F)s2)c2cc(S(=O)(=O)NC3(C)CC3)ccc21` [Example 169, 3-[5-(Difluoromethyl)-1,3,4-thiadiazol-2-yl]-1-(2-methoxyethyl)-N-(1-methylcyclopropyl)-2-oxo-benzimidazole-5-sulfonamide], the IC50 on PARG in HeLa cell line is 36 nM. Moreover, the EC50 at Human Full Length PARG is 355 nM.

As for `CN(C)CCCn1c(=O)n(-c2nnc(C(F)F)s2)c2cc(S(=O)(=O)NC3(CF)CC3)ccc21` [Example 170, 3-[5-(Difluoromethyl)-1,3,4-thiadiazol-2-yl]-1-[3-(dimethylamino)propyl]-N-[1-(fluoromethyl)cyclopropyl]-2-oxo-benzimidazole-5-sulfonamide], on PARG in HeLa cell line, the IC50 was found to be 89 nM. The EC50 on Human Full Length PARG came out at 92 nM.

As to `Cc1nsc(-n2c(=O)n(C)c3cc(F)c(S(=O)(=O)NC4(C)CC4)cc32)n1` [Example 171, 6-Fluoro-1-methyl-N-(1-methylcyclopropyl)-3-(3-methyl-1,2,4-thiadiazol-5-yl)-2-oxo-benzimidazole-5-sulfonamide], the IC50 at PARG in HeLa cell line amounted to 1550 nM. In addition, the EC50 at Human Full Length PARG was determined as 7110 nM.

In the case of `Cc1nsc(-n2c(=O)n(C)c3cc(F)c(S(=O)(=O)NC4(CF)CC4)cc32)n1` [Example 172, 6-Fluoro-N-[1-(fluoromethyl)cyclopropyl]-1-methyl-3-(3-methyl-1,2,4-thiadiazol-5-yl)-2-oxo-benzimidazole-5-sulfonamide], the IC50 on PARG in HeLa cell line stood at 2090 nM. In addition, the EC50 at Human Full Length PARG is 12000 nM.

Consider `Cn1c(=O)n(-c2nnc(C(F)F)s2)c2cc(S(=O)(=O)NC3(C)CC3)c(F)cc21` [Example 173, 3-[5-(Difluoromethyl)-1,3,4-thiadiazol-2-yl]-6-fluoro-1-methyl-N-(1-methylcyclopropyl)-2-oxo-benzimidazole-5-sulfonamide], for which the IC50 at PARG in HeLa cell line was 64 nM. Besides, the EC50 on Human Full Length PARG turned out to be 141 nM.

For the compound `Cn1c(=O)n(-c2ncns2)c2cc(S(=O)(=O)NC3(CF)CC3)ccc21` [Example 175, N-[1-(Fluoromethyl)cyclopropyl]-1-methyl-2-oxo-3-(1,2,4-thiadiazol-5-yl)benzimidazole-5-sulfonamide], the IC50 at PARG in HeLa cell line turned out to be 551 nM. Besides, the EC50 at Human Full Length PARG worked out at 250 nM.

For `Cc1nsc(-n2c(=O)n(C)c3ccc(S(=O)(=O)NC4(C)CC4)cc32)n1` [Example 176, 1-Methyl-N-(1-methylcyclopropyl)-3-(3-methyl-1,2,4-thiadiazol-5-yl)-2-oxo-benzimidazole-5-sulfonamide], the half-maximal inhibitory concentration (IC50) at PARG in HeLa cell line came out at 1790 nM. The EC50 on Human Full Length PARG was 6020 nM.

With `Cc1nnc(-n2c(=O)n(CC#N)c3ccc(S(=O)(=O)NC4(CF)CC4)cc32)s1` [Example 178, 1-(Cyanomethyl)-N-[1-(fluoromethyl)cyclopropyl]-3-(5-methyl-1,3,4-thiadiazol-2-yl)-2-oxo-benzimidazole-5-sulfonamide], the IC50 on PARG in HeLa cell line amounted to 903 nM. In addition, the EC50 on Human Full Length PARG is 682 nM.

On to `Cc1nsc(-n2c(=O)n(CC#N)c3ccc(S(=O)(=O)NC4(C)CC4)cc32)n1` [Example 179, 1-(Cyanomethyl)-N-(1-methylcyclopropyl)-3-(3-methyl-1,2,4-thiadiazol-5-yl)-2-oxo-benzimidazole-5-sulfonamide], for which the IC50 on PARG in HeLa cell line stood at 1160 nM. Also, the EC50 on Human Full Length PARG turned out to be 1150 nM.

Regarding `Cc1nsc(-n2c(=O)n(CC#N)c3ccc(S(=O)(=O)NC4(CF)CC4)cc32)n1` [Example 180, 1-(Cyanomethyl)-N-[1-(fluoromethyl)cyclopropyl]-3-(3-methyl-1,2,4-thiadiazol-5-yl)-2-oxo-benzimidazole-5-sulfonamide], at PARG in HeLa cell line, the IC50 was found to be 1930 nM. Further, the EC50 at Human Full Length PARG is 1130 nM.

On to `Cn1c(=O)n(-c2nnc(C(F)F)s2)c2cc(S(=O)(=O)NC3(CF)CC3)ccc21` [Example 181, 3-[5-(Difluoromethyl)-1,3,4-thiadiazol-2-yl]-N-[1-(fluoromethyl)cyclopropyl]-1-methyl-2-oxo-benzimidazole-5-sulfonamide], for which the IC50 on PARG in HeLa cell line was found to be 109 nM. In addition, on Human Full Length PARG, the EC50 was 291 nM.

Regarding `COCCn1c(=O)n(-c2nc(C)ns2)c2cc(S(=O)(=O)NC3(C)CC3)ccc21` [Example 182, 1-(2-Methoxyethyl)-N-(1-methylcyclopropyl)-3-(3-methyl-1,2,4-thiadiazol-5-yl)-2-oxo-benzimidazole-5-sulfonamide], on PARG in HeLa cell line, the IC50 stood at 537 nM. Besides, the EC50 on Human Full Length PARG is 309 nM.

As for `COCCn1c(=O)n(-c2ncns2)c2cc(S(=O)(=O)NC3(CF)CC3)ccc21` [Example 183, N-[1-(Fluoromethyl)cyclopropyl]-1-(2-methoxyethyl)-2-oxo-3-(1,2,4-thiadiazol-5-yl)benzimidazole-5-sulfonamide], the IC50 on PARG in HeLa cell line came out at 376 nM. Further, the EC50 on Human Full Length PARG was 549 nM.

Consider `COCCn1c(=O)n(-c2nc(C)ns2)c2cc(S(=O)(=O)NC3(CF)CC3)ccc21` [Example 184, N-[1-(Fluoromethyl)cyclopropyl]-1-(2-methoxyethyl)-3-(3-methyl-1,2,4-thiadiazol-5-yl)-2-oxo-benzimidazole-5-sulfonamide], for which, on PARG in HeLa cell line, the IC50 was determined as 701 nM. The EC50 on Human Full Length PARG came out at 1390 nM.

One may read the IC50 as the concentration that gives 50% inhibition.

The values are drawn from US10508086B2 (CANCER RESEARCH TECHNOLOGY LIMITED, priority 2014, dated 2019).
